According to patent publication US10286039B2, “Compositions and methods for treating neutropenia” (Children's Hospital Los Angeles, priority 2014, dated 2019):

Key:
S. aureus [1] = assay: Neutrophil bactericidal activity, neutropenic mice at neutrophil-decrease stage, lower dose; format: in vivo, C57BL/6J mice; details: for neutrophil induction by bacterial infection: neutrophil-decrease stage, Vetscan analysis of PB
Method: Mice (C57BL6/J) were randomly divided into five groups (3 control and 4 for each experimental group, n=19 mice). C57BL/6J mice (n=19) were randomly divided into five groups (3 for control and 4 for each of experimental groups). The procedures for induction of mouse neutropenia and treatment are the same to the medium dose test (see slide 6). Mice were challenged with 6.3×10^6 CFU of S. aureus on day 2 via tail vein injection. After 3 hrs infection, each 100 μl blood was collected from tails for determining initial bactericidal activities of neutrophils. The mice were sacrificed on day 3, by which PB and spleen were harvested. (FIG. 7A). Vetscan analysis of WBC and neutrophils in PB was performed (FIG. 7B). Except blank mice, neutrophil induction was not observed in all other groups (FIG. 7C-E). Bactericidal activities of neutrophils were determined 3 hr (panel C) and 16 hrs post-infection (panel D) in PB as well as in spleen (panel E), using blood agar analysis of viable extracellular bacteria.

neutropenic mice = assay: Neutrophil recovery in CPA-induced neutropenic mice at neutrophil-decrease stage; format: in vivo, C57BL6/J mice
Method: To evaluate Am80 effect in vivo, we first tested half maximal effective concentration (EC50) of different human equivalent high, medium, and low doses of Am80 and GCSF (FIG. 5a) on regenerating mature neutrophils in neutropenic mice. Normal C57BL6/J mice were injected with a single dose of cyclophosphamide (CPA) to reduce mouse neutrophils. At 4 hr post-injection of CPA, mice were treated with vehicle, Am80, GCSF, or Am80-GCSF for consecutive 3 days before mice were sacrificed (FIG. 5b). […] Data represent 2 independent experiments with similar results.

S. Aureus [2] = assay: Neutrophil bactericidal activity and production, neutropenic mice at neutrophil-recovery stage, lower dose; format: in vivo, Mice (C57BL6/J)
Method: Mice (C57BL6/J) were randomly divided into five groups (3 control and 4 for each experimental group, n=19 mice). As illustrated (FIG. 8a), mice were given regimens 2 days post-CPA injection (200 mg/kg). After consecutive 3 days of treatment, mice were challenged with S. Aureus for up to 16 hrs before euthanasia. We found a significant increase of peripheral blood (PB) neutrophils in all groups after bacterial infection (FIG. 8b). PB collected at 3 and 16 hrs-post infection was used for analyzing of neutrophil bactericidal activities. […] However, with low doses of Am80-GCSF treatment, Am80 can effectively differentiate GCSF-regenerated granulocytic precursors into mature neutrophils against microbial infection. P<0.05; **: P<0.01; ***: P<0.005.

CD34+ cells = assay: Western blot and gene transcription in CD34+ cells; format: cell-based
Description: A novel gene transcription pattern is induced by Am80, in contrast to All-trans retinoic acid (ATRA or RA).

S. aureus [3] = assay: Neutrophil bactericidal activity, neutropenic mice at neutrophil-decrease stage, medium dose; format: in vivo, C57BL/6J mice; details: for neutrophil induction by bacterial infection: neutrophil-decrease stage, Vetscan analysis of PB
Method: FIG. 6A experimental design. C57BL/6J mice (n=19) were randomly divided into five groups (3 for control and 4 for each of experimental groups). Mouse neutropenia was induced by IP injection of CPA on day 0. After 4 hrs of CPA injection, different regimens were given to mice once a day, with Am80 by oral or GCSF by SC or vehicle by oral. Mice were challenged by 6.3×10^6 CFU of S. aureus on day 2 via tail vein injection. After 3 hrs infection, each 100 μl blood was collected from tails for analysis of initial bactericidal activity of neutrophils. The mice were sacrificed 16 hrs post-infection, by which PB and heart were harvested. (FIG. 6B) Vetscan analysis of WBC and neutrophils in PB. Except blank mice, neutrophil induction was not observed in all other groups (FIG. 6C-E). Bactericidal activities of neutrophils were determined 3 hr (FIG. 6C) and 16 hrs post-infection (FIG. 6D) in PB as well as in heart (panel E), by using blood agar analysis of viable extracellular bacteria. […] A+G: Am80-GCSF.

NB4 cells = assay: Proliferation, granulocytic differentiation and ROS production in NB4 cells; format: cell-based; details: day 6, in the presence of either fMLP or PMA
S. Aureus [4] = assay: Survival of neutropenic mice enduring continual bacteremia; format: in vivo; details: treatment 24 hrs post-CPA
Method: If Am80 can indeed differentiate GCSF-regenerated great amount of granulocytic precursors into mature neutrophils against infection, Am80-GCSF combination should effectively reduce infection-related mortality in cancer chemotherapy induced neutropenia. We tested this hypothesis by using neutropenic mice experiencing bacteremia through entire neutropenia period. As illustrated (FIG. 9A), mice were given different regimens 4 hrs post-CPA injection for up to day 8. S. Aureus infection was performed on day 3, and survival rate was calculated on day 9. […] To evaluate bactericidal ability of regenerated neutrophils in survived mice, the survived blank and Am80-GCSF mice on day 11 were further infected with S. Aureus for 15 min before euthanasia. A parallel analysis of freshly isolated PB with both Giemsa and Gram stains determined neutrophil phagocytosis in infected mice vs. free of bacteremia in non-infected mice (FIG. 9E). Since GCSF is usually provided to CCIN ≥24 hrs post-chemo drug, we further tested low and medium doses of Am80-GCSF treatment 24 hrs post-CPA, as illustrated (FIG. 9F, 9J), with two independent experiments for each of doses.

AML BM primary blasts = assay: Proliferation of primary blasts from acute myeloid leukemia patients; format: cell-based, human
Method: Proliferation of PB primary blasts from acute myeloid leukemia patients was assayed (FIG. 13A) and quantified P<0.05 (FIG. 13B). Granulocytic morphology of AML PB primary blasts was analyzed (FIG. 13C) and quantified; Am80 vs. G-CSF, P<4.0E-8; Am80 vs. control, P<6.02E-7 (FIG. 13D).
Proliferation of BM primary blasts from acute myeloid leukemia patients was assayed (FIG. 13E) and quantified at day 8, Am80 vs. G-CSF, P<0.008; G-CSF vs. control, P<0.032 (FIG. 13F). Granulocytic morphology of AML BM primary blasts was analyzed (FIG. 13G) and quantified; Am80 vs. G-CSF, P<9.9E-4; Am80 vs. RA, P<1.0E-4 (FIG. 13H).

CC1(C)CCC(C)(C)c2cc(NC(=O)c3ccc(C(=O)O)cc3)ccc21 [Am80, tamibarotene]
neutrophil bactericidal activity (S. aureus [1]; 3 hr and 16 hrs post-infection in PB and spleen, viable extracellular bacteria): greater bactericidal activity than those induced by G-CSF or Am80+GCSF
neutrophil induction by bacterial infection (S. aureus [1]): not instigated
sustaining neutrophil levels (PB) (neutropenic mice; low and medium doses, 3 days treatment from 4 hr post-CPA, compared to all other treatments): better EC50 effect on sustaining neutrophil levels
granulocytic morphology differentiation (PB) (neutropenic mice; low doses vs medium doses): enhanced granulocytic morphology differentiation better than did medium doses
neutrophil production in BM and PB (S. Aureus [2]): induced least number of neutrophils in both BM and PB
C/EBPε, CD18, and granule LL-37 mRNA levels (CD34+ cells): significant up-regulation
p21Cip/Kip mRNA levels (CD34+ cells): decrease
MAT1 fragmentation (CD34+ cells; Western blot): progressive induction
retinoic acid receptor (RARα) hypophosphorylation (CD34+ cells; Western blot): progressive induction
neutrophil bactericidal activity (S. aureus [3]; 3 hr and 16 hrs post-infection in PB and heart, viable extracellular bacteria): significantly increased neutrophil bactericidal activity
neutrophil induction by bacterial infection (S. aureus [3]): not instigated

B1: GCSF: granulocyte colony-stimulating factor (protein, UniProt P09919 31-207, looked up)
Granulocyte …: TPLGPASSLPQSFLLKCLEQVRKIQGDGAALQEKLVSECATYKLCHPEELVLLGHSLGIPWAPLSSCPSQALQLAGCLSQLHSGLFLYQGLLQALEGISPELGPTLDTLQLDVADFATTIWQQMEELGMAPALQPTQGAMPAFASAFQRRAGGVLVASHLQSFLEVSYRVLRHLAQP
ROS production (NB4 cells): fails to induce ROS production
neutrophil induction by bacterial infection (S. aureus [1]): not instigated
survival rate (S. Aureus [4]; low-dose test, S. Aureus infection): 12.5%
survival rate (S. Aureus [4]; medium-dose test, no statistical difference between groups): 11.1%
differentiation of 3rd layer BM cells, granulocytic morphologic analysis (neutropenic mice; medium dose GCSF vs low doses of Am80-GCSF): less differentiated than those induced by low doses of Am80-GCSF
recovery of 3rd layer BM cells (neutropenic mice; medium dose, Percoll separation of bone marrow cells): induced highest recovery
growth rate of AML BM primary blasts (AML BM primary blasts; G-CSF vs. control, P<0.018): Higher growth rate
growth of non-APL AML patient blasts (AML BM primary blasts; compared to those treated with Am80 or ATRA): promotes the growth
neutrophil production in BM and PB (S. Aureus [2]): induced significantly more neutrophils in BM while similar amount in PB compared to Am80-GCSF
neutrophil bactericidal activity (killing assays) (S. Aureus [2]; PB at 3 and 16 hrs post-infection): significantly low bactericidal activity compared to those induced by Am80-GCSF
neutrophil induction by bacterial infection (S. aureus [3]): not instigated
